US10786514B2, “Dosage regiment of ferric maltol” (Shield TX (UK) Limited, priority 2015, dated 2020)

Columns and labels:
Assay type in all cases: in vivo, human
[1] = Phase I pharmacokinetic study: serum total iron concentration; conditions: for maximum mean serum total iron concentration: Day 1, iron-deficient subjects
Experimental: (§1) These studies were primarily pharmacokinetic and conducted in subjects with iron deficiency having active inflammatory disease or acute chronic inflammation. An open-label, randomised, single and repeat dose parallel group Phase I pharmacokinetic study was carried out to evaluate the effect of single and repeated twice daily (bid) oral doses of ST10 at 30 mg, 60 mg and 90 mg for 8 days.
(§2) 24 subjects with iron deficiency (with or without anaemia) were randomly allocated to one of the three ST10 dose groups as follows:
(§3) Group 1: 9 subjects received ST10, 30 mg twice daily for 7 days (days 1-7) plus a final 30 mg dose on the morning of day 8.
(§4) Group 2: 8 subjects received ST10, 60 mg twice daily for 7 days (days 1-7) plus a final 60 mg dose on the morning of day 8.
(§5) Group 3: 7 subjects received ST10, 90 mg twice daily for 7 days (days 1-7) plus a final 90 mg dose on the morning of day 8.
(§6) On day 1, following fasting for at least 1.5-2 hours beforehand, ST10 was administered (30 mg, 60 mg or 90 mg) and blood samples collected over the following 6 h for analysis. 60 mg was administered as two 30 mg capsules and 90 mg was administered as three 30 mg capsules, both as a single dose. Subjects continued dosing with ST10 on the evening of day 1 then every morning and evening for the next 6 days (Days 2 to 7).
On day 8 following fasting for at least 1.5-2 hours beforehand the last dosing of ST10 was administered (30 mg, 60 mg or 90 mg) and blood samples collected over the following 6 h for analysis.
On Days 1 and 8 blood samples were collected predose (0 h=time of ST10 dose) and at 5 minutes(for NTBI only), 15 minutes, 30 minutes, 45 minutes, and 1, 1.5, 2, 3, 4 and 6 h postdose.
These studies used transferrin saturation and total serum iron as measurements of iron uptake from the gut into the transport mechanisms. In addition serum ferritin was used as a measure of iron storage status at the end of the dosing period; all of these measurements are standard and well recognised.
One subject in the 60 mg dose group prematurely withdrew from the study on Day 7, so full profiles of all serum iron parameters were available in the 30 mg dose group for 9 subjects (days 1 and 8), in the 60 mg dose group 8 subjects on day 1 and for 7 subjects on day 8, and in the 90 mg dose group for 7 subjects (days 1 and 8).

[2] = Phase I pharmacokinetic study: total iron binding capacity (TIBC); conditions: over time and across 30, 60, 90 mg dose groups
Experimental: as §1, §6
On day 8 following fasting for at least 1.5-2 hours beforehand the last dosing of ST10 was administered (30 mg, 60 mg or 90 mg) and blood samples collected over the following 6 h for analysis. […]
Serum concentrations of transferrin, total iron binding capacity (TIBC), ferritin and soluble transferrin receptor; and reticulocyte haemoglobin concentrations (CHr) in whole blood were measured by central laboratories using appropriately validated methods. […]

[3] = Phase I pharmacokinetic study: tolerability; conditions: doses above 30 mg and up to 90 mg twice daily, 8 days, iron-deficient subjects with active inflammatory disease
Experimental: as §1, §2, §3, §4, §5

maximum mean serum total iron concentration ([1]; 30 mg oral dose group): 32.3 µmol/L | maximum mean serum total iron concentration ([1]; 60 mg oral dose group): 49.1 µmol/L | maximum mean serum total iron concentration ([1]; 90 mg oral dose group): 48.7 µmol/L | serum total iron concentrations on Day 8 versus Day 1 ([1]; Day 8, 30, 60, 90 mg dose groups): Comparable
Substance: ferric trimaltol [ST10]
total iron binding capacity, mean concentration [2]: approximately 70 μmol/L | tolerability [3]: well tolerated
